Tested on: Pancreas carcinoma cells
Experiment: Cancer cell invasion assay on humanized rats with implanted pancreas carcinoma cells
Format: in vivo
Settings: for Tumor response, 2 w after end of therapy: 2 weeks after end of therapy; for Tumor response, 1 w of therapy: after 1 week of therapy; for Tumor response, 2 w of therapy: after 2 weeks of therapy
Protocol: The cancer cell invasion assay was performed on humanized rats (Eyol, E. et al., Oncology Reports, 28: 2177-2187, 2012). Pancreas carcinoma cells were implanted. The successful implant was observed by luminescent imaging as well as by an increase in CXCR4 expression.
After a successful implant of carcinoma cells, the rats were treated with a peptide according to Seq ID No. 1 and Seq. ID No. 9 respectively. The results after 1 week of therapy (1 w of therapy), after 2 weeks of therapy (2 w of therapy) and 2 weeks after end of therapy are depicted in the below tables.

Sequence | Tumor response, 2 w after end of therapy (amount of peptide 35 mg) | Tumor response, 2 w after end of therapy (amount of peptide 70 mg) | Tumor response, 1 w of therapy (amount of peptide 70 mg) | Tumor response, 2 w of therapy (amount of peptide 7 mg) | Tumor response, 2 w after end of therapy (amount of peptide 10 mg) | Tumor response, 1 w of therapy (amount of peptide 10 mg) | Tumor response, 2 w of therapy (amount of peptide 10 mg) | Tumor response, 2 w after end of therapy (amount of peptide 20 mg) | Tumor response, 1 w of therapy (amount of peptide 20 mg) | Tumor response, 2 w of therapy (amount of peptide 70 mg)
ILRWSRKMPQFS (human) [Seq ID No. 9, Ile Leu Arg Trp Ser Arg Lys Met Pro Gln Phe Ser] | Tumor growth | Tumor growth | Tumor growth |  |  |  |  |  |  | 
IVRWSKKVPQVS (human) [Seq ID No. 1, Ile Val Arg Trp Ser Lys Lys Val Pro Gln Val Ser] |  | Complete Remission | No tumor growth | No tumor growth | Tumor growth | No tumor growth | Tumor growth | Complete Remission | No tumor growth | Remission
